This assay relates to subject having diabetes with A1C as high as 13. As to the kind of experiment: blood A1C level of a diabetic subject, astaxanthin alone and then the daily dose (Example 4). Format: in vivo, human. Particulars: one subject, 12-24 mg of astaxanthin a day. The text has this: They begin taking softgel capsules of the daily dose of Example 1 and after 6 weeks their blood A1C level is 5.6 with no changes in diet or habits.

From patent US11696593B2, “Astaxanthin nutritional compositions and uses” (Bioscience Formulators, LLC, priority 2018, dated 2023) come the findings set out here.

`CC1=C(/C=C/C(C)=C/C=C/C(C)=C/C=C/C=C(C)/C=C/C=C(C)/C=C/C2=C(C)C(=O)C(O)CC2(C)C)C(C)(C)CC(O)C1=O` (stereo not drawn) [astaxanthin, 3,3′-dihydroxy-β-carotene-4,4′-dione] came in with a blood A1C levels of at most 13%.
